Laboratory results reported in the supplement of paper PMC10307832.

Key:
Experiment in all cases: relative viability (nuclei count vs DMSO), 5 days (fraction); higher = more cells survive
[1] = system: NCI-H1792
Procedure, shortened: (§1)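 The day after seeding in 1536-well plates, lung cancer cell lines were treated by pin tool with a single drug, or with a fixed anchor-drug dose together with five library-drug doses (not always all listed) in √10 steps. After 5 days, a combined fix-and-stain solution (final 0.05% Triton X-100, 1% formaldehyde, 1 ug/ml Hoechst) was added. Nuclei counted on 4× images gave relative viability as treated counts over vehicle counts, reported as the median of duplicate plates.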

[2] = system: NCI-H1734
Procedure, shortened: as §1

[3] = system: COR-L23
Procedure, shortened: as §1

[4] = system: COR-L 105
Procedure, shortened: as §1

[5] = system: NCI-H358
Procedure, shortened: as §1

[6] = system: NCI-H1793
Procedure, shortened: as §1

[7] = system: SK-MES-1
Procedure, shortened: as §1

[8] = system: NCI-H1993
Procedure, shortened: as §1

[9] = system: NCI-H838
Procedure, shortened: as §1

[10] = system: HOP-62
Procedure, shortened: as §1

[11] = system: NCI-H2347
Procedure, shortened: as §1

O=c1cc(N2CCOCC2)oc2c(-c3cccc4c3sc3ccccc34)cccc12 + CC(=O)Nc1cccc(-n2c(=O)n(C3CC3)c(=O)c3c(Nc4ccc(I)cc4F)n(C)c(=O)c(C)c32)c1 [Trametinib] (partner 0.02 µM)
relative viability ([1]; first compound 0.01 µM): 0.322 | relative viability ([1]; first compound 0.03162 µM): 0.445 | relative viability ([1]; first compound 0.3162 µM): 0.383 | relative viability ([1]; first compound 1 µM): 0.458 | relative viability ([2]; first compound 0.01 µM): 0.772 | relative viability ([2]; first compound 0.03162 µM): 0.747 | relative viability ([2]; first compound 0.1 µM): 0.637 | relative viability ([2]; first compound 0.3162 µM): 0.69 | relative viability ([2]; first compound 1 µM): 0.758 | relative viability ([3]; first compound 0.01 µM): 0.617 | relative viability ([3]; first compound 0.03162 µM): 0.614 | relative viability ([3]; first compound 0.1 µM): 0.552 | relative viability ([3]; first compound 0.3162 µM): 0.633 | relative viability ([3]; first compound 1 µM): 0.655 | relative viability ([4]; first compound 0.01 µM): 0.414 | relative viability ([4]; first compound 0.03162 µM): 0.427 | relative viability ([4]; first compound 0.1 µM): 0.446 | relative viability ([4]; first compound 0.3162 µM): 0.451 | relative viability ([4]; first compound 1 µM): 0.429 | relative viability ([5]; first compound 0.01 µM): 0.133 | relative viability ([5]; first compound 0.03162 µM): 0.14 | relative viability ([5]; first compound 0.1 µM): 0.115 | relative viability ([5]; first compound 0.3162 µM): 0.128 | relative viability ([5]; first compound 1 µM): 0.165 | relative viability ([6]; first compound 0.01 µM): 0.372 | relative viability ([6]; first compound 0.03162 µM): 0.411 | relative viability ([6]; first compound 0.1 µM): 0.504 | relative viability ([6]; first compound 0.3162 µM): 0.406 | relative viability ([6]; first compound 1 µM): 0.38 | relative viability ([7]; first compound 0.01 µM): 0.546 | relative viability ([7]; first compound 0.03162 µM): 0.533 | relative viability ([7]; first compound 0.1 µM): 0.518 | relative viability ([7]; first compound 0.3162 µM): 0.516 | relative viability ([7]; first compound 1 µM): 0.48 | relative viability ([8]; first compound 0.01 µM): 0.507 | relative viability ([8]; first compound 0.03162 µM): 0.601 | relative viability ([8]; first compound 0.1 µM): 0.507 | relative viability ([8]; first compound 0.3162 µM): 0.407 | relative viability ([8]; first compound 1 µM): 0.516 | relative viability ([9]; first compound 0.01 µM): 0.594 | relative viability ([9]; first compound 0.03162 µM): 0.557 | relative viability ([9]; first compound 0.1 µM): 0.481 | relative viability ([9]; first compound 0.3162 µM): 0.469 | relative viability ([9]; first compound 1 µM): 0.442 | relative viability ([10]; first compound 0.01 µM): 0.379 | relative viability ([10]; first compound 0.03162 µM): 0.384 | relative viability ([10]; first compound 0.1 µM): 0.358 | relative viability ([10]; first compound 0.3162 µM): 0.385 | relative viability ([10]; first compound 1 µM): 0.373 | relative viability ([11]; first compound 0.01 µM): 0.263 | relative viability ([11]; first compound 0.03162 µM): 0.287 | relative viability ([11]; first compound 0.1 µM): 0.269 | relative viability ([11]; first compound 0.3162 µM): 0.309 | relative viability ([11]; first compound 1 µM): 0.229
